The text below walks through data of patent US20180079912A1, “ANTIFOULING MATERIALS” (priority 2013, published 2018).

Square brackets hold non-standard residues; d marks the D form. Peptide text beside a SMILES is read from it. Phe(4-F) = N[C@@H](Cc1ccc(F)cc1)C(=O)O; Dopa = N[C@@H](Cc1ccc(O)c(O)c1)C(=O)O

Data set [1] can be described thus: Dynamic water contact angles, tilting-plate method. It counts as physicochemical. As to conditions: gold substrate after coating. The method, then: (§1) The wetting properties were further investigated by the tilting-plate method that measured the dynamic contact angles, because it was essential in the confirmation of self-cleaning properties to investigate the dynamic water contact angles and surface free energies. The advancing (yadv) and receding (yrec) water contact angles of f-DOPA-coated substrates were measured, and the contact angle hysteresis (i.e., (yadv-yrec)) of each substrate was calculated. […] A water droplet on the substrate easily rolled off at a tilt angle of 5.31, which is clear evidence of self-cleaning properties. […] In addition, the surface free energy (gS) was calculated based on the Owens-Wendt geometric mean equation that divides the surface free energy into the dispersive (gDS) and polar (gPS) ones.

Data set [2] can be described thus: Surface free energy, Owens-Wendt geometric mean equation. Particulars: f-DOPA-coated gold surface; water and diiodomethane. Type of data set: physicochemical. Here is the method:
as §1
The surface free energy (gS; gS=gDS+gPS) of each surface was determined by measuring the contact angles with water and diiodomethane (CH2I2). The surface free energy of the f-DOPA-coated gold surface was calculated to be 0.279 mJ m^−2, and the other substrates have the surface free energies between 0.2 and 0.9 mJ m^−2. These values are extremely low, probably because of both the structural roughness and the incorporated perfluoro groups. For comparison, the surface free energy of a smooth surface modified with CF3 groups in hexagonal close packing was reported to be 6.7 mJ m^−2. […]

The nature of data set [3]: XPS, SEM and AFM of f-DOPA films. It counts as physicochemical. The method, then: After 12 h, the substrate was washed with acetonitrile, and the coating process was repeated with a fresh f-DOPA solution.
A short description of data set [4]: AFM topography of mica coated with the peptides. It counts as physicochemical. As to conditions: coated mica substrate, 0.5 mg/mL in methanol overnight. Here is the method:
Freshly cleaved mica surfaces were dipped overnight in different peptide solution at a concentration of 0.5 mg/mL in methanol. Then, the surfaces were washed with fresh methanol and dried under N2.

Data set [5] is described as follows: QCM-D real-time adhesion of peptides to Ti sensor (Sauerbrey model). Particulars: QCM-D on Ti sensor, 0.5 mg/mL in MeOH, 40 minutes. Here is the method: QCM-D (Q-sense, Biolin Scientific) was used for the study of peptide adhesion onto Ti surface. Measurements were performed in a flow module E1 system. Ti sensors with a fundamental resonant frequency of 5 MHz were also purchased from Q-sense and used as supplied. Prior to each experiment Ti sensors were cleaned with Oxygen/Plasma (Atto, Diener Electronic), followed by rinsing with 2% SDS and TDW and finally dried under N2. All QCM-D experiments were performed under flow-through conditions using a digital peristaltic pump ([…] Peristaltic Pump, IDEX) operating in pushing mode. The studied solutions were injected to the sensor crystal chamber at a rate of 0.1 mL/min. Organic solvent compatible tube and O-ring were used for the flow system. Peptides were dissolved in MeOH to a concentration of 0.5 mg/mL. The data were fitted with Sauerbrey model. According to this model the mass of adhering layer is calculated as […]

The nature of data set [6]: Layer thickness on Ti evaluated by XPS. As to conditions: Ti substrates, prolonged incubation. Type of data set: physicochemical. Here is the method: The X-ray Photoelectron Spectroscopy (XPS) measurements were performed using a Kratos AXIS Ultra X-ray photoelectron spectrometer (Kratos Analytical Ltd., Manchester, UK). Spectra were acquired using the A1-Kα monochromatic X-ray source (1,486.7 eV). Sample take-off angle was 90° (i.e. normal to the analyzer). The vacuum pressure in the analyzing chamber maintained to 2·10^-9 Torr. […] Data analyses were done using the Kratos Vision data reducing processing software (Kratos Analytical Ltd.) and […] Software Ltd.). Using the XPS measurements, it is possible to calculate the thickness of the assembled layers. We have done so using the standard attenuation relations of the photoelectrons emerging from different sample depths. The thickness calculation is based on the Briggs et al. method and others. For the Au substrate, the overlay thickness d (nm) expressed as: […] Calculated, using S. Tougard […] software (http://www.quases.com). Inelastic electron mean free path calculated from the Tanuma, Powell and Penn algorithm [Penn, 1994].

Data set [7] in a line: Coating thickness by ellipsometry (Cauchy model). Type of data set: physicochemical. As to conditions: Cauchy film model. Here is the method:
The thickness of the peptide-based coating was measured using α-SE spectroscopic ellipsometer (J. A. Woollam, Lincoln, Nebr., USA). […] The thickness of the layers and refractive indices were fitted according to the Cauchy model. The coefficients of the Cauchy equation were initially fixed for organic layers (An=1.45, Bn=0.01 and Cn=0), and an angle offset was permitted. Then, the parameters were allowed to be fitted to determine more accurate values.

A short description of data set [8]: Contact angle measurements of peptide-coated surfaces. Type of data set: physicochemical. Particulars: titanium substrate coated with peptide; bare 43.2°; 0.5 mg/mL in methanol. Here is the method:
The clean surfaces were dipped in a peptide solution (0.5 mg/mL in methanol) and left for overnight at RT. Then, they were rinsed extensively with methanol and dried under nitrogen. Contact angle measurements were carried out using a Theta Lite optical tensiometer (Attension, Finland). Each experimental measurement consisted of three repeats, and the reported angles were averaged. […] We chose this concentration of peptide since it formed a substantial coating that gave a good signal in various characterization methods. After incubation, we thoroughly washed the substrate with methanol and dried it under nitrogen. Due to the hydrophobic moieties of the peptides, water could not be used as a solvent system despite its high polarity. We used methanol as the solvent since it dissolved the peptide completely, and at the same time allowed it to adhere the substrate. Since methanol is a toxic solvent, we also examined other solvents with different polarities.

As for `NC(Cc1ccc(O)c(O)c1)C(=O)OCCC(F)(F)C(F)(F)C(F)(F)C(F)(F)C(F)(F)C(F)(F)C(F)(F)C(F)(F)F` (centres unmarked) [f-DOPA], in data set [1], the contact angle hysteresis came out at 9.91 and the “tilt angle at which a water droplet rolled off” value was 5.31. This compound also had a surface free energy in data set [2] of 0.279 mJ m^−2. For the same compound, the film thickness in data set [3] (f-DOPA coating on gold, from disappearance of Au XPS peaks) was at least 10 nm. Besides, in data set [3] (f-DOPA film), the “root-mean-square roughness (AFM)” value came out at 533.92 nm.

As for `COC(=O)[C@H](Cc1ccc(F)cc1)NC(=O)[C@@H](N)Cc1ccc(O)c(O)c1` [Peptide 6, NH2-L-DOPA-L-(4F) Phe-COOMe] (H-[Dopa]-[Phe(4-F)]-OMe), in data set [4], the “height of spherical-like aggregates (AFM)” value (shortened to “height”) is 1.02-3.65 nm. Further, in data set [5], the Density was 805 Kg/m^3, the Mass/Area is 13 ± 2 ng/cm^2 and the Thickness is given as 1.7 ± Å. Moreover, in data set [6], the “average thickness of the peptide layer evaluated by XPS” value (from here on “average thickness”) is recorded as 3.82±0.04 nm. The “thickness of the coating by ellipsometry” value in data set [7] amounted to 3.66±0.04 nm.

Consider “NH2-L-DOPA-D-(4F)Phe(2)-D-(4F)Phe(3)-COOMe [Peptide 4]”, for which the “height” value in data set [4] is listed as 0.32-0.65 nm. Besides, in data set [5], the Density came to 769 Kg/m^3, the Mass/Area was determined as 45 ± 2 ng/cm^2 and the Thickness came to 5.6 ± 0.3 Å. For the same compound, the “average thickness” value in data set [6] is on record as 4.41±0.03 nm.

In the case of “NH2-L-DOPA-D-(4F)Phe(2)-L-(4F)Phe(3)-COOMe [Peptide 3]”, in data set [4], the “height” value was 0.20-2.30 nm. In data set [5], the Density turned out to be 760 Kg/m^3, the Mass/Area is 43 ± 4 ng/cm^2 and the Thickness was 5.4 ± 0.5 Å. The “average thickness” value in data set [6] is given as 3.9±0.1 nm.

In the case of “NH2-DOPA-L-(F5)Phe(2)-L-(F5)Phe(3)-COOMe [Peptide 5]”, the “height” value in data set [4] is 1.00-5.00 nm. In addition, in data set [5], the Density is given as 717 Kg/m^3, the Mass/Area was determined as 27 ± 3 ng/cm^2 and the Thickness is recorded as 3.4 ± Å. For the same compound, in data set [6], the “average thickness” value came to 4.2±0.1 nm. In addition, the “thickness of the coating by ellipsometry” value in data set [7] turned out to be 5.2±0.1 nm.

“NH2-L-DOPA-L-(4F)Phe(2)-D-(4F)Phe(3)-COOMe [Peptide 2]”: the “height” value in data set [4] was 0.20-0.48 nm. Also, in data set [5], the Density stood at 824 Kg/m^3, the Mass/Area came out at 57 ± 3 ng/cm^2 and the Thickness came to 7.3 ± 0.3 Å. The “average thickness” value in data set [6] turned out to be 4.3±0.1 nm.

As for “NH2-L-DOPA-L(4F)-Phe(2)-L(4F)-Phe(3)-COOMe [Peptide 1]”, the contact angle in data set [8] was 68.1 °. Moreover, in data set [4], the “height” value is 0.25-0.50 nm. In data set [5], this compound registered a Density of 767 ± 4 Kg/m^3, a Mass/Area of 72.1 ± 0.4 ng/cm^2 and a Thickness of 9.11 ± 0.05 Å. In addition, in data set [6], the “average thickness” value is reported as 3.9±0.1 nm.
